According to patent US20150224190A1, “Combination of a phosphoinositide 3-kinase inhibitor and an inhibitor of the IL-8/CXCR interaction” (priority 2012, published 2015):

Key:
[1] = system: JAK2/STAT5; assay: JAK2/STAT5 phosphorylation in breast cancer cell lines (pJAK2 ELISA, pSTAT5 immunoblot); format: cell-based, human; conditions: for JAK2 activation, starting at (time of treatment): in vitro, time after adding the compound
Protocol: MDA231, lung metastatic subline MDA231 LM2 (Minn et al., 2005) and SUM159 human breast cancer cells, as well as the Balb/c tumor-derived mammary cancer lines 4T-1 and 168FARN (Aslakson and Miller, 1992), were propagated as previously described. All other cell lines were obtained from and were cultured according to the protocols of ATCC. For treatment with inhibitors, cells were synchronized without serum overnight and then supplemented with culture medium containing the inhibitor(s). For experiments with doxycycline-inducible shRNAs, 500 ng/ml of doxycycline (Sigma) was added to the medium and experiments performed 48 h later. Cell viability assays, cell cycle and cell death measurements were performed at 0.5% FCS in order to avoid masking effects of growth factors present under full-serum conditions.
Cells for Western Blotting and ELISA were lysed with RIPA buffer. Xenograft lysates were prepared by lysing kryo-homogenized tumor powder in RIPA buffer (50 mM Tris-HCl pH 8, 150 mM NaCl, 1% NP-40, 0.5% sodium deoxycholate, 0.1% SDS. RIPA was supplemented with 1× protease inhibitor cocktail (Complete Mini, Roche), 0.2 mmol/L sodium-vanadate, 20 mM sodium fluoride and 1 mmol/L phenylmethylsulfonyl fluoride. For IRS-1 immunoprecipitation, cell lysates containing 500-1000 μg of protein were incubated with 1 μg of antibody and 20-50 μl of protein A-Sepharose beads (Zymed Laboratories, Inc., South San Francisco, Calif.) overnight at 4° C. Immunoprecipitates or whole cell lysates (30-80 μg) were subjected to SDS-PAGE, transferred to PVDF membranes (Immobilon-P, Millipore) and blocked for 1 hr at room temperature with 5% milk in PBS-0.1% Tween 20. Membranes were then incubated overnight with antibodies as indicated and exposed to secondary HRP-coupled anti-mouse or -rabbit antibody at 1:5-10,000 for 1 h at room temperature. Proteins were visualized using an ECL kit (Amersham) or an enhanced chemiluminescence detection system (Pierce Biotechnology). In each of the studies presented, the results shown are typical of at least three independent experiments. The following antibodies were used: anti-JAK2 (Cell Signaling), anti-JAK1 (Cell Signaling), anti-pSTAT5 (Tyr694, Cell Signaling), anti-STAT5 (STAT5A&B, Cell Signaling), anti-STAT3 (Cell Signaling), anti-pSTAT3 (Tyr705, Cell Signaling), anti-AKT pan (Cell Signaling), anti-pAKT (Thr308 and Ser473, Cell Signaling), anti-ERK2 (Santa Cruz), anti-S6 (Cell Signaling), anti-pS6 (Ser235/236, Cell Signaling), anti-PARP (Cell Signaling), anti-MCL1 (Cell Signaling), anti-BIM (EL, L and S isoforms, Cell Signaling), anti-pIGF1R/plnsR (Invitrogen), anti-IGF1Rbeta (Cell Signaling), anti-InsRbeta (Santa Cruz), anti-IRS1 (Upstate), anti-plRS1 (Tyr612, Calbiochem).
For assessing pJAK2 levels, an ELISA assay (Tyr1007/1008, Invitrogen) was applied because of cross-reactivity of all pJAK2 antibodies tested. Interleukin-8 levels in RIPA lysates, cell culture supernatants and mouse tail vein blood plasma were measured by ELISA, as well (Biolegend). […]
The present inventors applied single doses of COMPOUND A, a dual PI3K and mTOR inhibitor, and analyzed target inhibition and potential signaling pathway crosstalks after 2, 4, 8 and 20 h hours of treatment. […] While RAD001 readily activated JAK2 starting at 4 hours of treatment, they observed a later response with BKM120 treatment starting at 8 hours after adding the compound. […]

[2] = system: MDA231 LM2 cells; assay: Matrigel Boyden chamber invasion assay; format: cell-based, human; conditions: 300 nM BEZ235, 350 nM NVP-BSK805, CXCR1 blocking antibody; 48 h; normalized to cell number
Protocol: FIG. 2. Blockade of CXCR1 reduces invasion and has minor effects on primary tumor growth (A) NVP-BSK805 and CXCR1 blockade but not BEZ235 decrease invasion. Bar graphs showing relative invasion of MDA231 LM2 cells seeded on Matrigel coated Boyden invasion chambers and treated with 300 nM BEZ235, 350 nM NVP-BSK805, a JKA2 inhibitor, and/or CXCR1 blocking antibody. Invasion was assessed after 48 h, data represent relative invasion values normalized to cell number and are means±SEM (n=4, *P<0.05).
Cytokine stimulation of cells was performed for 30 min in medium with 0.5% FCS supplemented with cytokines at 10 ng/ml, except for EPO at 10 U/ml. Antibody-blocking experiments were performed by adding anti-CXCR1 (R&D, MAB330, 1 μg/ml), anti-CXCR2 (R&D, MAB331, 2.5 μg/ml) or a mouse IgG antibody (R&D, 1 μg/ml) to the medium 45 min prior to lysis of the cells. Cell viability was measured using the Cell Proliferation Reagent WST-1 (Roche). Colony formation assays were performed by seeding 1000 cells/well in 6-well plates and staining single colonies after 7-14 days with 0.2% crystal violet in PBS/4% formalin. […] The number of invading cells in each treatment condition was counted 48 h after seeding by microscopy at 40× (using the mean of 4 microscopic fields) and normalized to cell number.

Compound | JAK2 activation, starting at (time of treatment) [1] [h] | upregulation of pSTAT5 by BEZ235 ([1]; JAK2 inhibitor together with BEZ235) | relative invasion [2]
CO[C@H]1C[C@@H]2CC[C@@H](C)[C@@](O)(O2)C(=O)C(=O)N2CCCC[C@H]2C(=O)O[C@H]([C@H](C)C[C@@H]2CC[C@@H](OCCO)[C@H](OC)C2)CC(=O)[C@H](C)/C=C(\C)[C@@H](O)[C@@H](OC)C(=O)[C@H](C)C[C@H](C)/C=C/C=C/C=C/1C [RAD001, reference compound] | 4 | – | –
Nc1cc(C(F)(F)F)c(-c2cc(N3CCOCC3)nc(N3CCOCC3)n2)cn1 [COMPOUND C, 5-(2,6-di-morpholin-4-yl-pyrimidin-4-yl)-4-trifluoromethyl-pyridin-2-ylamine] | 8 | – | –
Fc1cc(-c2cccc3ncc(-c4cnn(C5CCNCC5)c4)nc23)cc(F)c1CN1CCOCC1 [NVP-BSK805, reference compound] | – | counteracted | decrease
